Measured values as given in patent publication US20040219201A1, “Tempamine compositions and methods of use” (priority 2001, published 2004).

Experiment: Pharmacokinetics and biodistribution in C26 tumor-bearing BALB/c mice
Assay type: in vivo
Experimental: The pharmacokinetics and biodistribution of liposome-entrapped tempamine and of free tempamine were determined in healthy and in tumor-bearing mice. […] The liposome formulation included a lipid label to allow analysis of the distribution of the liposome lipids. The tempamine levels in blood and tissues were measured using the EPR technique set forth in the Methods section.
8 to 12-week-old BALB/c female mice, obtained through the Animal Breeding House of the Hebrew University (Jerusalem, Israel), were used throughout the study. Animals were housed at Hadassah Medical Center with food and water ad libitum. All procedures were in accordance with the standards required by the Institutional Animal Care and Use Cornmittee of the Hebrew University and Hadassah Medical Organization. Each mouse was injected with one inoculum of tumor cells (1×10^6 C26 cells) subcutaneously into the left flank. […] Phospholipid dose was 11 mg (14.7 μmole)/mouse (377 mg (514 μmole)/kg body weight). At 1, 4, 8, 24, and 48 hours after the injection, the animals were anesthetized with ether inhalation, bled by eye enucleation, and immediately sacrificed for removal of liver, lung, spleen, kidney, and tumor. Each time point consisted of 3 mice. Plasma was separated by centrifugation.
To measure the total tempamine concentration (encapsulated and free) in the organs, the liposomes were solubilized by homogenization in a Polytron homogenizer (Kinematica, Lutzern, Switzerland) in 2% Triton X-100 (1:2, organ:Triton X-100 solution). The homogenized mixture was cooled and heated several times to destroy the lipid membrane (Barenholz, Y., et al., in LIPOSOME TECHNOLOGY, G. Gregoriadis (Ed.), 2nd Edn., Vol. I, CRC Press, Boca Raton, pp. 527-616, (1993)). The plasma samples were mixed 1:1 with 2% Triton X-100 to give the 1% Triton X-100 in the tested sample and also cooled and heated several times. These conditions were effective to achieve a release of all entrapped tempamine from intact liposomes.
For deterrmination of the total concentration of nitroxide+hydroxylamine, potassium ferricyanide at a final concentration of 2-3 mM (depending on the tested tissue) was added to all the samples (plasma and organ homogenates) to oxidize the hydroxylamine to intact nitroxide.
From the samples prepared as described above in section F, duplicates of 100 μl were burned in a Sample Oxidizer (Model 307, Packard Instrument Co., Meridien, Conn.) and left overnight in a dark, cool place. The samples were then measured by β-counting (KONTRON Liquid Scintillation Counter).

CC1(C)CC(N)CC(C)(C)N1[O] [tempamine, 2,2,6,6-tetramethylpiperidine-4-amino-1-oxyl]
concentration at 4 h (female, BALB/c, mouse, intravenous, 18 mg/kg, free tempamine, 4 hour time point, read-out: tempamine level in other organs (detection minimum)): < 100 nM | AUC (female, BALB/c, mouse, plasma, iv, tumor-bearing mice, 18 mg/kg i.v.): 170 ± 5 µg·h/mL | clearance (female, BALB/c, mouse, plasma, iv, tumor-bearing mice, 18 mg/kg i.v., read-out: CL (ml/h), clearance rate (converted)): 3.2 mL/h | half-life (female, BALB/c, mouse, plasma, iv, tumor-bearing mice, 18 mg/kg i.v., read-out: T1/2 (h), blood circulation half-life (converted)): 0.15 ± 0.009 h | Vd (female, BALB/c, mouse, plasma, iv, tumor-bearing mice, 18 mg/kg i.v., read-out: Vss (ml), volume of distribution): 55 ± 15.7 mL | tempamine in liver and spleen (free tempamine, 1 hour and 4 hours after injection): traces | half-life of tempamine in plasma (mouse plasma): several minutes
